The results in this text go back to US7977387B2, “Aminobenzophenone compounds” (Leo Pharma A/S, priority 2003, dated 2011).

By inhibition is commonly meant how much of the control response was suppressed.

For one assay, the system named is TNF-α. The assay can be described thus: Inhibition of TNF-α secretion in LPS stimulated peripheral blood mononuclear cells. Type of assay: cell-based. As to conditions: PBMC; LPS stimulated human peripheral blood mononuclear cells, 18 hours, ELISA; read-out: The median inhibition concentration (IC50, nM) of TNF-α. Summed up:
(§1)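 Human PBMCs (5×10^5 cells/ml, RPMI 1640 + 2% FCS) pre-treated with compound 30 min, then stimulated with LPS ([…]) for 18 h. Secreted IL-1β and TNF-α quantified by ELISA; IC50 values calculated.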
Background: ELISA stands for enzyme-linked immunosorbent assay.

A further assay concerns IL-1β. The assay can be described thus: Inhibition of IL-1β secretion in LPS stimulated peripheral blood mononuclear cells. As to conditions: PBMC; LPS stimulated human peripheral blood mononuclear cells, 18 hours, ELISA; read-out: The median inhibition concentration (IC50, nM) of IL-1β. The format is cell-based. The method, boiled down:
as §1

Another assay has as its target T1, p38α MAP kinase (Homo sapiens, UniProt Q16539).
T1 construct: made in house; host or cells: COS-1 cells (transient co-transfection; anti-FLAG M2 immunoprecipitation)
The assay can be described thus: p38α MAP kinase assay (immunoprecipitated FLAG-p38α, GST-ATF-2 substrate). The format is biochemical. As to conditions: FLAG-p38α from COS-1 cells, 50 μM ATP; read-out: p38 MAP kinase IC50. As to the method: COS-1 cells (derived from African green monkey kidney fibroblast-like cell containing wild-type T antigen under control of the SV40 promotor) were obtained from ATCC (ATCC no. CRL-1650) and grown in growth medium (DMEM without phenoired, 10% FCS, 2 mM L-glutamine, 100 U penicillin and 100 μg streptomycin/ml) at 37° C. with 5% CO2. The cells were passaged twice a week by trypsination (0.25% trypsin, 1 mM EDTA in PBS) and were split 1:10. The medium was changed every second or third day. The cell line was regularly tested with the Mycoplasma PCR Primer Set (Stratagene) and found to be free of Mycoplasma. Tissue culture media, FCS, L-glutamine and penicillin and streptomycin are from Bribco BRL, Gaithersburg, Md., USA.
Transient Expression of COS-1 Cells
On day one COS-1 cells were seeded in 143 cm^2 petri dish with a density of 2×10^4 celler/cm^2 in growth medium. At day 2 the cells were co-transfected with 5 μg (total) of experimental plasmid DNA, expressing the FLAG-p38α and FLAG-MKK6(EE). The plasmids were introduced into the COS-1 cells in serum-free medium using DOTAP™ (Boehringer-Mannheim, Mannheim, Germany). Plasmid DNA was prepared and purified using the QIAGEN EndoToxin-free Maxiprep-500 kit (Hilden, Germany). Briefly, DNA and DOTAP™ were mixed for exactly 15 min. at 37° C. In the CO2 incubator. […]

The subject of assay [1] is LPS induced TNF-α response. The assay can be described thus: In vivo screening model of LPS induced TNF-α response in mice. As to conditions: Mus musculus, mice (C3H/HeN), dosed 1 hour prior to LPS, plasma TNF-α 80-90 minutes after LPS, vs LPS treated control group, read-out: In vivo inhibition of LPS induced TNF-α production (in %). Summed up:
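Female C3H/HeN mice (~8 weeks) dosed with compound in suspension vehicle at 10 mg/kg 1 h before ip LPS (E. coli 055:B5, 1.0 mg/kg); plasma drawn 80-90 min post-LPS. TNF-α measured by sandwich ELISA (OD 450 nm minus 620 nm). Reported as % inhibition versus LPS-treated controls, Mann-Whitney test.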

T1 sequence (Q16539 whole entry): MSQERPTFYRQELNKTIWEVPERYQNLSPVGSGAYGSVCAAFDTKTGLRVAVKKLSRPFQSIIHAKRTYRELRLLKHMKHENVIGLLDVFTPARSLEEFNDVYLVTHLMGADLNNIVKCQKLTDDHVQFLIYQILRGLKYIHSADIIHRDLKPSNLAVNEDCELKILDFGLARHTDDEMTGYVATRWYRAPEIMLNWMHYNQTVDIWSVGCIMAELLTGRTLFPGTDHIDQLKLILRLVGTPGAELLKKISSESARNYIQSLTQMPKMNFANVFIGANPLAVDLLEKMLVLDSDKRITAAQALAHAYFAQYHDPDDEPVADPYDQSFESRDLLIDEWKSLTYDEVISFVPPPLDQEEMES

Take `Cc1ccc(C(=O)NCCO)cc1C(=O)c1ccc(Nc2ccccc2N)cc1Cl` [Compound 112, 3-[4-(2-Aminophenylamino)-2-chlorobenzoyl]-N-(2-hydroxyethyl)-4-methylbenzamide]: the IC50 came to 0.6 nM in the assay with TNF-α, 4 nM in the assay with IL-1β and 2 nM on p38α MAP kinase. In addition, the inhibition at 10 mg/kg in assay [1] stood at 96%.
